This assay concerns CaCl2-induced abdominal aortic aneurysm. The assay can be described thus: CaCl2-induced AAA animal efficacy model, mice. Type of assay: in vivo, 129SvEv mice. As to conditions: 28 days, aortic lumenal perimeter. From the text:
A targeted application of a calcium chloride solution to the mouse aorta induces vessel dilatation Chiou et al. J. Surg. Res. (2001), 99: 371-376; Lomgo et al. J. Clin. Invest. (2002), 110: 625-632. Two weeks after treatment, the vessel dilatation compared to the original vessel diameter becomes statistically significant, with up to 75% increase of aortic lumenal perimeter after 4 weeks. Calcium precipitates have been localized primarily within the elastic network of the media. Disruption of this structure by the calcium-elastic tissue complex weakens the vessel wall, contributing to aneurysm formation. This injury also serves as a proinflammatory stimulus, recruiting neutrophils, lymphocytes, monocytes, and mast cells.
Mice: 129SvEv males, 7 weeks of age, are acquired from Taconic Farms, Germantown, N.Y., USA.
Aneurysm Induction Model: All procedures are performed in accordance with Eli Lilly and Company Institutional Animal Care and Use guidelines. Upon their arrival, animals have a one week acclimation period during which they have ad libitum access to standard rodent chow (Purina #2014) and house water. Following the acclimation period, animals are anesthetized with isoflurane, and a laparotomy is performed for the CaCl2-stimulated induction of the abdominal aortic aneurysm (AAA). […] Interior cross sectional lumenal perimeter measurements (mm) are collected at that point to assess efficacy and statistically analyzed with JMP® 7 software (Cary, N.C.). Statistical Analysis: Measurements of lumenal perimeter are expressed as mean values±SE. […]
The efficacy signal window in the CaCl2-induced abdominal aortic aneurysm model is determined by the lumenal perimeter of the aorta in mice treated with saline-soaked gauze followed by 4-weeks dosing with vehicle that determines 100% efficacy (“Sham Vehicle”) and the lumenal perimeter of the aorta in mice treated with CaCl2-soaked gauze followed by 4-weeks dosing with vehicle (“Vehicle”) that determines 0% efficacy.

Regarding `CCCc1c(NC(=O)CC(C)(C)C(=O)[O-])cccc1OCCCOc1cc(O)c(-c2ccc(F)cc2)cc1CC.[Na+]` [Example 2, Sodium 4-[[3-[3-[2-ethyl-4-(4-fluorophenyl)-5-hydroxy-phenoxy]propoxy]-2-propyl-phenyl]amino]-2,2-dimethyl-4-oxo-butanoate], the “% Reduced (±S.E.) of AAA” value (10 mg/kg b.i.d. oral gavage) is reported as 41% ± 13, the “% Reduced (±S.E.) of AAA” value (30 mg/kg b.i.d. oral gavage) is reported as 48% ± 10 and the “% Reduced (±S.E.) of AAA” value (60 mg/kg b.i.d. oral gavage) was 58% ± 13.

Values taken from patent publication US9187411B2, “Leukotriene B4 antagonist compound” (Eli Lilly and Company, priority 2012, dated 2015).
